Laboratory results from publication PMC6331910, “The Curcumin Analogue 1,5-Bis(2-hydroxyphenyl)-1,4-pentadiene-3-one Induces Apoptosis and Downregulates E6 and E7 Oncogene Expression in HPV16 and HPV18-Infected Cervical Cancer Cells” (Molecules, 2015).
Like-named read-outs stand apart in the source and are kept apart here.

Tests used:
CaSki [1] = assay: MTT cell viability (dose-dependent cytotoxicity) assay, 72 h; type: cell-based, human; details: for Selective Index CaSki: EC50 (MRC9)/EC50 (CaSki) × 100; for EC50: read-out: EC50 (Mean ± S.E.M.) CaSki
Experimental: (§1) Control-treated wells contained cells incubated in media with equal volumes of DMSO (0.2%). […] The media was aspirated and cells were incubated in 100 µL complete medium with 0.5 mg/mL MTT solution for 4 h in the dark to allow metabolism of MTT by cellular mitochondrial dehydrogenases. The excess MTT was aspirated and the formazan crystals formed were dissolved by the addition of 100 µL of DMSO. The absorbance of dark blue formazan was read at 570/650 nm wavelengths using a microplate reader (Bio-Rad Benchmark Plus Microplate Spectrophotometer, Hercules, CA, USA). Triplicate absorbance values were averaged and the effect of the compounds on growth inhibition was assessed as percentage cell viability as follows: […] The results were analysed using GraphPad Prism version 6.00 for Windows (GraphPad Software, La Jolla, CA, USA). […] Overall EC50 was determined by taking the average EC50 from three independent experiments.

HeLa [2] = assay: as above; type: cell-based, human; details: for Selective Index HeLa: EC50 (MRC9)/EC50 (HeLa) × 100; for EC50: read-out: EC50 (Mean ± S.E.M.) HeLa
Experimental: as §1

MRC9 = assay: MTT cell viability (cytotoxicity) assay on non-cancerous lung fibroblasts, 72 h; type: cell-based; details: Homo sapiens, read-out: EC50 (Mean ± S.E.M.) MRC9
Experimental: (§2) HeLa, CaSki and MRC9 cells were plated in triplicate wells in 96-well flat-bottomed tissue culture plates (Nunc, Roskilde, Denmark) with 10^5 cells per mL in 100 μL culture media with working concentrations of diarylpentanoid treatment ranging from 1.6 to 100 μM. Control-treated wells contained cells incubated in media with equal volumes of DMSO (0.2%). Cells were treated for 72 h for dose-dependent cytotoxicity assays and at 24, 48 and 72 h for anti-proliferative (time-dependent) assays. In order to assess cell viability and anti-proliferative activity after diarylpentanoid treatment, the colorimetric 3-(4,5-dimethylthiazol-2-yl)-2,5-diphenyltetrazolium bromide (MTT) assay was performed as previously described with modifications. The media was aspirated and cells were incubated in 100 µL complete medium with 0.5 mg/mL MTT solution for 4 h in the dark to allow metabolism of MTT by cellular mitochondrial dehydrogenases. The excess MTT was aspirated and the formazan crystals formed were dissolved by the addition of 100 µL of DMSO. The absorbance of dark blue formazan was read at 570/650 nm wavelengths using a microplate reader (Bio-Rad Benchmark Plus Microplate Spectrophotometer, Hercules, CA, USA). Triplicate absorbance values were averaged and the effect of the compounds on growth inhibition was assessed as percentage cell viability as follows: (1) Percentage cell viability =Absorbance of Test − Absorbance of Blank (media only)/Absorbance of Control − Absorbance of Blank (media only) × 100 where, absorbance = optical density of sample, O.D.; control = untreated sample; test = treated sample.
The results were analysed using GraphPad Prism version 6.00 for Windows (GraphPad Software, La Jolla, CA, USA). Using percentage cell viability Equation (1), log dose–response curves were constructed, from which the half maximal effective concentration, EC50 for each replicate was determined. Overall EC50 was determined by taking the average EC50 from three independent experiments. […] (3) Selectivity Index (SX) =EC50 (MRC9)/EC50 (Cancer cell line) × 100

CaSki [3] = assay: MTT anti-proliferative (time-dependent) assay, 24, 48 and 72 h; type: cell-based, human; details: for concentration from which a notable decline in cell viability was caused / effect on cell viability: at 24, 48 and 72 h; for cell viability: 6.3–100 μM
Experimental: as §2
(§3) An independent set of vehicle-treated (DMSO only) controls were included in the anti-proliferative assays to assess the proliferation of untreated cancer cells over 24, 48 and 72 h. As such, the cell viability at 24 h was used as a baseline to measure proliferation rate at 48 and 72 h. (2) Percentage cell viability = […]/Absorbance of Control (24 h) × Absorbance of Blank (media only) × 100

HeLa [4] = assay: as above; type: cell-based, human; details: for concentration from which a notable decline in cell viability was caused / cell growth: at 24, 48 and 72 h; for reduction of cell viability: 12.5 μM and above
Experimental: as §2, §3

[5] = Homo sapiens, Ca-Ski, MTT, 72 h
[6] = MRC9, MTT, 72 h, non-cancerous lung fibroblasts

Compound | Selective Index CaSki (CaSki [1]) | EC50 (CaSki [1]; [5]) [µM] | Selective Index HeLa (HeLa [2]) | EC50 (HeLa [2]; Homo sapiens, HeLa, MTT, 72 h) [µM] | EC50 (MRC9; [6]) [µM] | concentration from which a notable decline in cell viability was caused (CaSki [3]) [µM] | concentration from which a notable decline in cell viability was caused (HeLa [4]) [µM] | effect on cell viability (CaSki [3]; 12.5 μM onwards) | cell growth (HeLa [4]; onwards from 25 μM) | also measured
COc1cc(/C=C/C(=O)CC(=O)/C=C/c2ccc(O)c(OC)c2)ccc1O [Curcumin] | 168 | 15.8 ± 3.1 | 100 | 26.7 ± 14.3 | 26.6 ± 3.2 | 25 | 50 | – | – | inhibition at 25 µM (CaSki [1]; Homo sapiens, Ca-Ski, CaSki, 25 μM, 72 h, read-out: growth inhibition): 50%; inhibition at 50 µM (HeLa [2]; Homo sapiens, HeLa, beginning at 50 μM, 72 h, read-out: growth inhibition): ~50%; effect on cell viability (CaSki [3]; from 25 μM onwards): significant decline in cell viability; cell growth (HeLa [4]; onwards from 50 μM): below 50%
COc1cc(C=CC(=O)C=Cc2ccc(O)c(OC)c2)ccc1O [MS13, 1,5-bis(4-hydroxy-3-methoxyphenyl)-1,4-pentadiene-3-one] | 346 | – | 145 | – | – | – | – | – | – | decrease in cell growth (CaSki [1]; CaSki, 3.1 μM, 72 h): 50%; cell growth after treatment (CaSki [1]; CaSki, 6.3–100 μM, 72 h): around 10%; EC50 (CaSki [1]; Homo sapiens, Ca-Ski, 72 h): 2.8 ± 0.4 µM; cell viability (HeLa [2]; HeLa, beyond 12.5 μM, 72 h): less than 10%; EC50 (HeLa [2]; Homo sapiens, HeLa, 72 h): 6.7 ± 2.4 µM; viability at 12.5 µM (HeLa [2]; Homo sapiens, HeLa, 12.5 μM, 72 h): ~12%; EC50 (MRC9; MRC9, 72 h): 9.7 ± 2.4 µM; dosage from which reduction in cell viability was significantly higher at 48 and 72 h than at 24 h (CaSki [3]): 6.3 µM; cell viability (CaSki [3]; 48 h): 21%; cell viability (CaSki [3]; 72 h): 9%; viability at 12.5 µM (CaSki [3]; Homo sapiens, Ca-Ski, 12.5 μM, 24 h, read-out: decline of cell viability): ~50%; dosage from which reduction in cell viability was significantly higher at 48 and 72 h than at 24 h (HeLa [4]): 12.5 µM; reduction of cell viability (HeLa [4]; 24 h): 72%; reduction of cell viability (HeLa [4]; 48 h): approximately 91%; reduction of cell viability (HeLa [4]; 72 h): ~95%
O=C1C(=Cc2cccc(F)c2)CCCC1=Cc1cccc(F)c1 [MS49, 2,6-bis(3-fluorobenzylidene)cyclohexanone] | 273 | 6 ± 2.9 | 199 | 8.3 ± 4.6 | 16.4 ± 4.4 | 12.5 | 25 | significant decline in cell viability | below 50% | cell viability (CaSki [1]; CaSki, 25–100 μM, 72 h): around 10%; viability at 12.5 µM (CaSki [1]; Homo sapiens, Ca-Ski, CaSki, 12.5 μM, 72 h): 20%; inhibition at 12.5 µM (HeLa [2]; Homo sapiens, HeLa, beginning at 12.5 μM, 72 h, read-out: growth inhibition): ~75%
O=C(C=Cc1cccc(F)c1)C=Cc1cccc(F)c1 [MS40E, 1,5-bis(3-fluorophenyl)-1,4-pentadiene-3-one] | 906 | 3.5 ± 0.4 | 204 | 15.5 ± 1.9 | 31.7 ± 3.2 | 12.5 | 25 | significant decline in cell viability | below 50% | inhibition at 6.3 µM (CaSki [1]; Homo sapiens, Ca-Ski, CaSki, 6.3 μM, 72 h, read-out: growth inhibition): 80%; inhibition at 100 µM (CaSki [1]; Homo sapiens, Ca-Ski, CaSki, 100 μM, 72 h, read-out: growth inhibition): 90%; inhibition at 25 µM (HeLa [2]; Homo sapiens, HeLa, beginning at 25 μM, 72 h, read-out: growth inhibition): ~75%
